Structures are written as SMILES.

A short description of the data set: Human HepG2 cell viability assay in 384 well format. It is filed as toxicity, cell-based. More on the design: dose 125 nL, time 70.5 hour; cytotoxicity at 70.5 h: concentration not given beside the values. The following applies: HepG2 cells, read-out: Inhibition.
With `CS(=O)(=O)c1ccc(NC(=O)N2CCc3sccc3C2)cn1`, the cytotoxicity at 70.5 h amounted to 46.4%.

As for `COc1cc(CN(C)C(=O)Nc2cc(C)on2)ccc1SC`, the cytotoxicity at 70.5 h was -1.35%.

In the case of `N#CCCN(CCC#N)C(=O)CN1CCCC1Cc1cccc(F)c1` (stereo unspecified), the cytotoxicity at 70.5 h is -5%.

For the compound `Cc1ccc(C(=O)NCCCNS(C)(=O)=O)c(=O)[nH]1`, the cytotoxicity at 70.5 h was -3.31%.

For the compound `CNC(=O)c1cnc(/C=C/c2ccc(OC)c(O)c2)s1`, the cytotoxicity at 70.5 h is -6.12%.

As for `O=C(Nc1ccc(N2CCCC2)nc1)N1CCc2ccccc2C1`, the cytotoxicity at 70.5 h came to 3.91%.

For the compound `COc1ccc(NC(=O)C2CCOC2)c(N2CCN(C(C)=O)CC2)n1` (stereo unspecified), the cytotoxicity at 70.5 h amounted to 4.61%.

As to `COc1ccc(NC(=O)c2ccc[nH]2)c(N2CCN(C(C)=O)CC2)n1`, the cytotoxicity at 70.5 h is -0.755%.

Regarding `CCCNC(=O)Nc1cc2c(cc1SC)OCCO2`, the cytotoxicity at 70.5 h was found to be 0.576%.

Turning to `CSc1cc2c(cc1NC(=O)NCC(C)(C)C(N)=O)OCCO2`, the cytotoxicity at 70.5 h is -1.42%.

In the case of `CCCN1CCC(NC(=O)NCCc2nc(CC)c(C)s2)CC1`, the cytotoxicity at 70.5 h is -1.97%.

Regarding `CCCn1nc2c(cc1=O)CN(Cc1cc(C)on1)CC2`, the cytotoxicity at 70.5 h turned out to be 4.88%.

With `Cc1noc(CN2CCN(CC(C)O)CC2)n1` (stereo unspecified), the cytotoxicity at 70.5 h turned out to be 2.13%.

As for `COCCCN1CCCN(C(C)C(=O)Nc2cccc(I)c2)CC1` (stereo unspecified), the cytotoxicity at 70.5 h is 21.2%.

For `COCCCN1CCCN(C(C)C(=O)Nc2ccnn2C(C)C)CC1` (stereo unspecified), the cytotoxicity at 70.5 h was -4%.

Turning to `COc1cccc(CN(C)Cc2cccc(C#N)c2)c1OC`, the cytotoxicity at 70.5 h was -3.83%.

For `CNS(=O)(=O)c1cccc(C(C)NCc2cccc(OC)c2)c1` (stereo unspecified), the cytotoxicity at 70.5 h turned out to be 10.9%.

As to `CNS(=O)(=O)c1cccc(C(C)NCc2ccccc2)c1` (stereo unspecified), the cytotoxicity at 70.5 h was -2.31%.

As for `CC(NCC1=Cc2cc(Cl)ccc2OC1)c1nnc2n1CCCC2` (stereo unspecified), the cytotoxicity at 70.5 h is -3.35%.

As to `Cc1ccc(CNCc2nnc3n2CCCC3C(F)(F)F)s1` (stereo unspecified), the cytotoxicity at 70.5 h is -10.1%.

In the case of `CCCS(=O)(=O)N1CCC(NC(=O)c2ccc(Cl)s2)CC1`, the cytotoxicity at 70.5 h is -11.6%.

`CCCS(=O)(=O)N1CCC(NC(=O)c2cc(C)c(CC)s2)CC1`: the cytotoxicity at 70.5 h is -12.1%.

As for `CCC(=O)NCc1cc(Br)ccc1OC(F)F`, the cytotoxicity at 70.5 h was -6%.

For `Cc1cc(C2CCCN2C(=O)NCc2cccc(F)c2)on1` (stereo unspecified), the cytotoxicity at 70.5 h is -8.57%.

For the compound `CCCSCC(=O)Nc1ncn(CC(=O)NCc2ccccc2)n1`, the cytotoxicity at 70.5 h is -5.44%.

For `Cc1cnn(Cc2cc(F)ccc2F)c1NC(=O)NC1CC1`, the cytotoxicity at 70.5 h is -7.32%.

For the compound `CCCNC(=O)CCNC(=O)Cc1nc(-c2ccco2)oc1C`, the cytotoxicity at 70.5 h was -4.05%.

As to `Cc1cccc(NC(=O)[C@@H]2CCCN2CC(=O)N2CCCCCC2)n1`, the cytotoxicity at 70.5 h was -4.62%.

As for `Cc1cnn(C2CN(CC(O)c3ccc4c(c3)OCCO4)C2)c1` (stereo unspecified), the cytotoxicity at 70.5 h is -3.93%.

On to `Cc1cc(S(=O)(=O)N2CCCc3ccc(F)cc32)sc1C(=O)O`, for which the cytotoxicity at 70.5 h is -2.82%.

For `N#CC(Sc1nnnn1C1CCOCC1)C1CCCCC1` (stereo unspecified), the cytotoxicity at 70.5 h is -3.62%.

Take `Cc1cc(C(=O)NC2CCCN(c3ccccc3)C2=O)on1` (stereo unspecified): the cytotoxicity at 70.5 h turned out to be 0.654%.

In the case of `CS(=O)(=O)NCC(=O)N1CCCC1c1noc(C2CC2)n1` (stereo unspecified), the cytotoxicity at 70.5 h is -2.26%.

For the compound `Cc1cc(NC(=O)Cn2cc(C#N)c(=O)c3cc(Br)ccc32)no1`, the cytotoxicity at 70.5 h was determined as 0.537%.

Regarding `COCc1nc2n(n1)CCCC2Nc1nc(C2CC2)ns1` (stereo unspecified), the cytotoxicity at 70.5 h came to 1.93%.

Consider `CCc1nsc(NC2CCCn3nc(COC)nc32)n1` (stereo unspecified), for which the cytotoxicity at 70.5 h was -3.94%.

With `CSC(C)(C)CNC(=O)NC1CCN(C)CC1`, the cytotoxicity at 70.5 h was -3.38%.

Turning to `COc1cccc(Cc2nnc(SC3CCOC3=O)o2)c1` (stereo unspecified), the cytotoxicity at 70.5 h is -5.61%.

Take `COC(=O)CCN1CCCC1c1ccccc1Cl` (stereo unspecified): the cytotoxicity at 70.5 h was -6.47%.

Take `N#Cc1cccc(CS(=O)(=O)NCCC(O)c2ccccc2)c1` (stereo unspecified): the cytotoxicity at 70.5 h was -10%.

For the compound `Cc1ccc(C2COCCN2C(=O)c2ccc(N(C)C)cc2)o1` (stereo unspecified), the cytotoxicity at 70.5 h is -8.97%.

`COc1ncccc1NC(=O)N1CCC(CNC(C)=O)CC1`: the cytotoxicity at 70.5 h was -7.14%.

For the compound `O=C(NCCN1CCOCC1)NCc1ncc(-c2ccccc2)o1`, the cytotoxicity at 70.5 h is -11.5%.

Consider `CCc1ncc(C(=O)NCCNC(=O)Cc2ccc(F)cc2)s1`, for which the cytotoxicity at 70.5 h was -11.7%.

On to `Cn1c(C(=O)N2CCC(C(=O)N3CCCC3)CC2)c(Cl)c2ccccc21`, for which the cytotoxicity at 70.5 h is -9.31%.

As for `CCS(=O)(=O)c1ccc(N2CCC(NC(=O)CCC(C)C)CC2)cc1`, the cytotoxicity at 70.5 h was -9.09%.

With `Cn1ccnc1SCc1nc(C(C)(C)NC(=O)OC(C)(C)C)no1`, the cytotoxicity at 70.5 h was found to be 12%.

As for `c1ccc2c(N3CCCCC3Cn3cncn3)ncnc2c1` (stereo unspecified), the cytotoxicity at 70.5 h is -9.62%.

As for `Cc1nc(C)n(CC2CCCCN2CC(=O)Nc2nncs2)n1` (stereo unspecified), the cytotoxicity at 70.5 h was -1.06%.

`Cc1cnn(CCNCc2ccc(OCC(N)=O)cc2)c1`: the cytotoxicity at 70.5 h is -6.65%.

`Cc1cc(C)n(CC2CCCCN2CC(=O)Nc2cccnc2)n1` (stereo unspecified): the cytotoxicity at 70.5 h is 17.8%.

Take `O=C(CC1=CCCCC1)NCCc1csc(N2CCCC2)n1`: the cytotoxicity at 70.5 h was -0.0397%.

For the compound `CC(O)CN1CCN(C(=O)c2cnn(-c3ccc(Cl)cc3)c2)CC1` (stereo unspecified), the cytotoxicity at 70.5 h is -5.02%.

With `c1nc(N2CCCCC2Cn2cncn2)c2ccsc2n1` (stereo unspecified), the cytotoxicity at 70.5 h was 14.7%.

Regarding `c1ccc(OCCN2CCCC(c3noc(C4CC4)n3)C2)cc1` (stereo unspecified), the cytotoxicity at 70.5 h was -0.448%.

Regarding `O=C(O)c1ccc(F)c(S(=O)(=O)Nc2c(F)cccc2-n2cccn2)c1`, the cytotoxicity at 70.5 h is -5.11%.

For `c1coc(CN2CCO[C@@]3(CCC[C@@H]3COCc3nccs3)C2)c1`, the cytotoxicity at 70.5 h is -13.3%.

Consider `Cc1noc(C)c1CN1C[C@@H]2COC[C@@H](C(=O)N3CCCO3)[C@@H]2C1`, for which the cytotoxicity at 70.5 h turned out to be 51.2%.

As for `COc1c(CNC2CCc3c(Cl)cccc32)c(C)nn1C` (stereo unspecified), the cytotoxicity at 70.5 h was -12.4%.

Regarding `O=C1COC2(CCN(CC3CC3)CC2)CN1c1ccsc1`, the cytotoxicity at 70.5 h is -8.69%.

Take `CN(C)[C@@H]1CCN(C(=O)CC2CC2)[C@H]1Cc1cnn(C)c1`: the cytotoxicity at 70.5 h is -7.51%.

Turning to `CCN1C[C@H]2[C@@H](C1)N(S(=O)(=O)c1ccccc1)CC[C@H]2OC`, the cytotoxicity at 70.5 h is -2.93%.

As to `COCCN1C(=O)C[C@H]2[C@H]1CCN2Cc1ccccc1`, the cytotoxicity at 70.5 h was -4.06%.

As for `COCCCNC(=O)c1cc(-c2cnc(N3CCOCC3)nc2)cn1C`, the cytotoxicity at 70.5 h is -6.15%.

With `Cc1cccc(C(=O)N2CC[C@@H]3[C@H]2CCC(=O)N3c2ccccc2)n1`, the cytotoxicity at 70.5 h was 17.8%.

For the compound `O=C(C1CCOCC1)N1CCO[C@H]2[C@H](Oc3ccccn3)CC[C@@H]21`, the cytotoxicity at 70.5 h was 13.9%.

Consider `c1cncc(CN2CC[C@H]3O[C@@H](COCC4CCOCC4)CC[C@H]32)c1`, for which the cytotoxicity at 70.5 h is -7.03%.

`c1cncc(CN2CCn3c(Cn4cncn4)cnc3C2)c1`: the cytotoxicity at 70.5 h is -7.44%.

On to `O=C(c1ccco1)N1CCN2C[C@H](OCc3cccnc3)C[C@H]2C1`, for which the cytotoxicity at 70.5 h is -12.3%.

For the compound `c1cncc(OC[C@@H]2CCC[C@@]23CN(Cc2nccs2)CCO3)c1`, the cytotoxicity at 70.5 h is -2.19%.

Consider `c1ccc(COC[C@H]2CC[C@H]3[C@H](CCN3Cc3ccccn3)O2)nc1`, for which the cytotoxicity at 70.5 h is -10.3%.

The values above are taken from ChEMBL document CHEMBL3507680, “University of Dundee, Gates Library screen for HepG2 cell viability”.
